Like-named read-outs stand apart in the source and are kept apart here.
Columns and labels:
Type in all cases: cell-based
[1] = cytotoxicity in Drosophila DL1 cells; settings: Drosophila, DL1 cells (embryonic macrophage-derived), DL1 cells
Description: (§1) We screened the DDPs on the Drosophila assay system for cytotoxicity, inhibitory activity of innate immune signalling and insecticidal activity. The cytotoxicity of the DDPs was evaluated using two cell lines, embryonic macrophage-derived DL1 cells[58]–[60] and larval blood cell-derived l(2)mbn cells, and their IC50 values are listed in Supplementary Table 23.

DL1 cells = test: cytotoxicity in Drosophila DL1 cells; settings: DL1 cells; for % viability, viability 1: replicate 1, relative to DMSO 1%; for % viability, viability 2: replicate 2, relative to DMSO 1%; for IC50: cytotoxicity
Description: as §1

[2] = system: human immunodeficiency virus-1 (HIV-1); test: anti-HIV MAGI assay
Description: We examined the inhibitory activities of DDPs against various species of bacteria (both gram-negative and gram-positive bacteria), fungi and viruses. […] In contrast, preliminary screening of the DDPs for anti-viral agents with hepatitis B virus (HBV), measles virus (MV), Epstein-Barr virus (EBV), herpes simplex virus (HSV) and human immunodeficiency virus-1 (HIV-1) indicated their selective inhibition of HIV.

[3] = replicate 2, relative to DMSO 1%, read-out: % viability, viability 2
[4] = replicate 1, relative to DMSO 1%, read-out: % viability, viability 1
[5] = average of two replicates, read-out: IC50 Average
[6] = replicate 1, read-out: IC50 (1)
[7] = replicate 2, read-out: IC50 (2)
[8] = Human immunodeficiency virus 1, MAGI, anti-HIV, average of numeric determinations, read-out: Avg. EC50

C=C1CCC2C(C)(CCC=C(C)C)C(O)CCC2(C)C1Cc1c(O)c(C)c(C)oc1=O (centres unmarked) [Compound 9, higginsianin B]
viability at 0.04 µM [1, 3]: 202% | viability at 0.2 µM [1, 4]: 190% | viability at 4 µM [1, 4]: 20.9% | viability at 4 µM [1, 3]: 22.6% | viability at 10 µM [1, 4]: 20.4% | viability at 10 µM [1, 3]: 21.1% | viability at 20 µM [1, 4]: 19.2% | viability at 20 µM [1, 3]: 18% | Luminescence Raw1 (DL1 cells; 0.04 µM, replicate 1): 3124696 | % viability, viability 1 (DL1 cells; 0.04 µM): 227.835% | Luminescence Raw2 (DL1 cells; 0.04 µM, replicate 2): 2770120 | Luminescence Raw1 (DL1 cells; 0.2 µM, replicate 1): 2602758 | Luminescence Raw2 (DL1 cells; 0.2 µM, replicate 2): 2435040 | % viability, viability 2 (DL1 cells; 0.2 µM): 177.549% | Luminescence Raw1 (DL1 cells; 1 µM, replicate 1): 371891 | % viability, viability 1 (DL1 cells; 1 µM): 27.1162% | Luminescence Raw2 (DL1 cells; 1 µM, replicate 2): 463117 | % viability, viability 2 (DL1 cells; 1 µM): 33.7678% | Luminescence Raw1 (DL1 cells; 4 µM, replicate 1): 286075 | Luminescence Raw2 (DL1 cells; 4 µM, replicate 2): 310594 | Luminescence Raw1 (DL1 cells; 10 µM, replicate 1): 279225 | Luminescence Raw2 (DL1 cells; 10 µM, replicate 2): 288960 | Luminescence Raw1 (DL1 cells; 20 µM, replicate 1): 263360 | Luminescence Raw2 (DL1 cells; 20 µM, replicate 2): 246413 | IC50 (DL1 cells; [5]): 361 nM | IC50 (DL1 cells; average±SEM, read-out: IC50): 360 ± 30 nM | IC50 (DL1 cells; [6]): 328 nM | IC50 (DL1 cells; [7]): 394 nM | EC50 ([2]; anti-HIV, single determinations, read-out: Efficacy (EC50)): > 10000 nM

C=C1CCC2C(C)(CCC=C(C)C)C(O)CCC2(C)C1Cc1c(OC)oc(C)c(C)c1=O (centres unmarked) [Compound 15, viridoxin A hydrolysate]
Luminescence Raw1 (DL1 cells; 0.04 µM, replicate 1): 2784909 | % viability, viability 1 (DL1 cells; 0.04 µM): 203.06% | Luminescence Raw2 (DL1 cells; 0.04 µM, replicate 2): 3009267 | % viability, viability 2 (DL1 cells; 0.04 µM): 219.419% | Luminescence Raw1 (DL1 cells; 0.2 µM, replicate 1): 2743429 | % viability, viability 1 (DL1 cells; 0.2 µM): 200.035% | Luminescence Raw2 (DL1 cells; 0.2 µM, replicate 2): 2853442 | % viability, viability 2 (DL1 cells; 0.2 µM): 208.057% | Luminescence Raw1 (DL1 cells; 1 µM, replicate 1): 2896366 | % viability, viability 1 (DL1 cells; 1 µM): 211.186% | Luminescence Raw2 (DL1 cells; 1 µM, replicate 2): 3157521 | % viability, viability 2 (DL1 cells; 1 µM): 230.228% | Luminescence Raw1 (DL1 cells; 4 µM, replicate 1): 726344 | % viability, viability 1 (DL1 cells; 4 µM): 52.9608% | Luminescence Raw2 (DL1 cells; 4 µM, replicate 2): 1230470 | % viability, viability 2 (DL1 cells; 4 µM): 89.7188% | Luminescence Raw1 (DL1 cells; 10 µM, replicate 1): 281027 | % viability, viability 1 (DL1 cells; 10 µM): 20.4909% | Luminescence Raw2 (DL1 cells; 10 µM, replicate 2): 344848 | % viability, viability 2 (DL1 cells; 10 µM): 25.1443% | Luminescence Raw1 (DL1 cells; 20 µM, replicate 1): 282109 | % viability, viability 1 (DL1 cells; 20 µM): 20.5698% | Luminescence Raw2 (DL1 cells; 20 µM, replicate 2): 296532 | % viability, viability 2 (DL1 cells; 20 µM): 21.6214% | IC50 (DL1 cells; average±SEM): 6100 ± 1570 nM | IC50 (DL1 cells; read-out: IC50 (1), replicate 1): 4530 nM | IC50 (DL1 cells; read-out: IC50 (2), replicate 2): 7660 nM | IC50 (DL1 cells; read-out: IC50 Average, average of two replicates): 6100 nM | EC50 ([2]; Human immunodeficiency virus 1, MAGI, read-out: Avg. EC50 (nM), anti-HIV, average of numeric determinations): 8.51 nM

C=C1CCC2C(C)(CCC=C(C)C)C(O)CCC2(C)C1Cc1c(O)c(C)c(C)oc1=O (centres unmarked) [Compound 4]
Luminescence Raw1 (DL1 cells; 0.04 µM, replicate 1): 2757856 | % viability, viability 1 (DL1 cells; 0.04 µM): 201.087% | Luminescence Raw2 (DL1 cells; 0.04 µM, replicate 2): 3026942 | % viability, viability 2 (DL1 cells; 0.04 µM): 220.707% | Luminescence Raw1 (DL1 cells; 0.2 µM, replicate 1): 2720705 | % viability, viability 1 (DL1 cells; 0.2 µM): 198.378% | Luminescence Raw2 (DL1 cells; 0.2 µM, replicate 2): 3168342 | % viability, viability 2 (DL1 cells; 0.2 µM): 231.017% | Luminescence Raw1 (DL1 cells; 1 µM, replicate 1): 2448745 | % viability, viability 1 (DL1 cells; 1 µM): 178.548% | Luminescence Raw2 (DL1 cells; 1 µM, replicate 2): 2704113 | % viability, viability 2 (DL1 cells; 1 µM): 197.168% | Luminescence Raw1 (DL1 cells; 4 µM, replicate 1): 345570 | % viability, viability 1 (DL1 cells; 4 µM): 25.197% | Luminescence Raw2 (DL1 cells; 4 µM, replicate 2): 345209 | % viability, viability 2 (DL1 cells; 4 µM): 25.1707% | Luminescence Raw1 (DL1 cells; 10 µM, replicate 1): 299777 | % viability, viability 1 (DL1 cells; 10 µM): 21.858% | Luminescence Raw2 (DL1 cells; 10 µM, replicate 2): 341603 | % viability, viability 2 (DL1 cells; 10 µM): 24.9077% | Luminescence Raw1 (DL1 cells; 20 µM, replicate 1): 287878 | % viability, viability 1 (DL1 cells; 20 µM): 20.9904% | Luminescence Raw2 (DL1 cells; 20 µM, replicate 2): 302301 | % viability, viability 2 (DL1 cells; 20 µM): 22.0421% | IC50 (DL1 cells; [5]): 1540 nM | IC50 (DL1 cells; average±SEM, read-out: IC50): 1540 ± 80 nM | IC50 (DL1 cells; [6]): 1610 nM | IC50 (DL1 cells; [7]): 1460 nM | EC50 [2, 8]: 592 nM

CC(C)=CCC/C(C)=C/CC/C(C)=C/CC/C(C)=C/Cc1c(O)c(C)c(C)oc1=O [Compound 2]
EC50 [2, 8]: 157 nM

C=C1CCC2C(C)(CC(=O)C=C(C)C)C(O)CCC2(C)C1Cc1c(OC)oc(C)c(C)c1=O (centres unmarked) [Compound 25]
viability at 0.04 µM [1, 4]: 135% | viability at 0.04 µM [1, 3]: 136% | viability at 0.2 µM [1, 4]: 130% | viability at 0.2 µM [1, 3]: 129% | viability at 1 µM [1, 4]: 128% | viability at 1 µM [1, 3]: 133% | viability at 4 µM [1, 4]: 130% | viability at 4 µM [1, 3]: 124% | viability at 10 µM [1, 4]: 110% | viability at 10 µM [1, 3]: 127% | viability at 20 µM [1, 4]: 19.2% | viability at 20 µM [1, 3]: 27.2% | Luminescence Raw1 (DL1 cells; 0.04 µM, replicate 1): 2772839 | Luminescence Raw2 (DL1 cells; 0.04 µM, replicate 2): 2800252 | Luminescence Raw1 (DL1 cells; 0.2 µM, replicate 1): 2673287 | Luminescence Raw2 (DL1 cells; 0.2 µM, replicate 2): 2657777 | Luminescence Raw1 (DL1 cells; 1 µM, replicate 1): 2635775 | Luminescence Raw2 (DL1 cells; 1 µM, replicate 2): 2736769 | Luminescence Raw1 (DL1 cells; 4 µM, replicate 1): 2684468 | Luminescence Raw2 (DL1 cells; 4 µM, replicate 2): 2551374 | Luminescence Raw1 (DL1 cells; 10 µM, replicate 1): 2257781 | Luminescence Raw2 (DL1 cells; 10 µM, replicate 2): 2619904 | Luminescence Raw1 (DL1 cells; 20 µM, replicate 1): 396244 | Luminescence Raw2 (DL1 cells; 20 µM, replicate 2): 560668 | IC50 (DL1 cells; Drosophila melanogaster, average of two replicates, read-out: IC50 Average): 17200 nM | IC50 (DL1 cells; Drosophila melanogaster, average±SEM, read-out: IC50): 17200 ± 2060 nM | IC50 (DL1 cells; Drosophila melanogaster, replicate 1, read-out: IC50 (1)): 15100 nM | IC50 (DL1 cells; Drosophila melanogaster, replicate 2, read-out: IC50 (2)): 19200 nM

From publication PMC7156458, “Synthetic biology based construction of biological activity-related library of fungal decalin-containing diterpenoid pyrones” (Nature Communications, 2020)
